Key:
[1] = tested on: DRD2; assay: DRD2 expression in SH-SY5Y cells; assay type: cell-based; details: vs untreated cells
Experimental: SH-SY5Y were plated in 10 cm petri dishes a density of 2×10^6 cells. After 24 h cells were treated in differentiation medium (growth medium containing 1% FBS without RA) with 10% bacteria supernatants or YCFA+, 10 uM RA, 200 uM hexanoic acid or 200 uM valproic acid, for 17 hrs. There after representative images were taken using phase contrast EVOS XL core microscope at 40×10.65 magnification. Cells were collected, and total RNA was isolated according to RNeasy mini kit protocol (Qiagen). cDNAs were made using the high capacity cDNA reverse transcription kit (Applied Biosystems). Gene expression was measured using qPCR. GAPDH was used as internal control. Fold change was calculated according to the 2^(−ΔΔct) method.
The inventors measured the change in DRD2 expression in neuroblastoma cells using the same method as described in Example 1.

[2] = tested on: SH-SY5Y cells; assay type: cell-based
Experimental: SH-SY5Y cells were plated at a seeding density of 10,000 cells/well, 24 hrs later cells were treated in 100 ul of 1% FBS growth media with different concentrations (express as percentage v/v) of cell-free bacterial supernatants from stationary phase cultures for 22 h. Thereafter 10 μl of MTT solution was added and cells were incubated in CO2 incubator for 4 h, at the end of this time 100 μl of isopropanol with 0.04 HCL was added to each well. The absorbance was measured at 560 nm wavelength and a reference wavelength of 655 nm. MTT assay kit was purchased from Merck Millipore (Cat n. CT01).

[3] = tested on: TLR-4, CD11b; assay: Gene expression of inflammatory markers in brain tissue (qPCR); assay type: in vivo, BALBc mice; details: oral gavage 1×10^9 CFU for 6 consecutive days
Experimental: BALBc (Envigo, UK) adult male mice were group housed under a 12 h light-dark cycle; standard rodent chow and water were available ad libitum. All experiments were performed in accordance with European guidelines following approval by University College Cork Animal Ethics Experimentation Committee. Animals were 8 weeks old at the start of the experiment.
Animals were allowed to habituate to their holding room for one week after arrival into the animal unit. They receive oral gavage (200 μL dose) of live biotherapeutics at a dose of 1×10^9 CFU for 6 consecutive days between 15:00 and 17:00. On day 7, the animals are decapitated, and tissues are harvested for experimentation. […]
Total RNA was extracted using the mirVana™ miRNA Isolation kit (Ambion/Llife technologies, Paisley, UK) and DNase treated (Turbo DNA-free, Ambion/life technologies) according to the manufacturers recommendations. RNA was quantified using NanoDrop™ spectrophotometer (Thermo Fisher Scientific Inc., Wilmington, Del., USA) according to the manufacturer's instructions. RNA quality was assessed using the Agilent Bioanalyzer (Agilent, Stockport, UK) according to the manufacturer's procedure and an RNA integrity number (RIN) was calculated. […] Quantitative PCR was carried out using probes (6 carboxy fluorescein—FAM) designed by Applied Biosystems to mouse specific targeted genes, while using β-actin as an endogenous control. […]

[4] = tested on: ERK signalling (phosphorylated ERK1 and 2/total ERK); assay: ERK signalling in SKMEL28 cell line (Western blot); assay type: cell-based; details: SKMEL28, relative to the negative control (YFCA+)
Experimental: Following 24 h treatment with the appropriate drugs either in presence of 10% bacterial supernatant or absence (YCFA+), protein extracts were obtained by lysing cells in RIPA buffer (R0278; Sigma Aldrich) supplemented with protease inhibitors (cOmplete Protease Inhibitor Cocktail Tablets; Roche, Switzerland) and 1 mM/L sodium orthovanadate, 0.5 mM/L PMSF. Protein quantification was done by the BCA protein assay. Equal amounts of total protein (20 μg/lane) were then separated by SDS-PAGE on 4-15% gradient gel (BioRad) and transferred to polyvinylidene difluoride (PVDF) membranes (Thermo Fisher Scientific, Loughborough). […]
Proteins of interest were detected with the appropriate HRP-conjugated secondary antibody (1:10,000, Thermo Fisher Scientific, Loughborough), developed with the ECL Western blotting Super Signal PicoPlus substrate (34577; Thermo Fisher Scientific, Loughborough), and visualised in Chemidoc XRS Imager (BioRad).
The effects of the following treatments were assessed on the SKMEL28 melanoma cell line (V600E oncogenic mutation in BRAF): (1) MRx0029; (2) Vemurafenib (VEMU) in YCFA+ medium; (3) VEMU and MRx0029; (4) Azacytidine-C (Aza-c) in YCFA+ medium; (5) Aza-c and MRX0029; (6) VEMU, Aza-c and MRx0029.

[5] = tested on: neuron specific enolase (NSE)/enolase 2; assay: Suppression of neuron specific enolase (NSE)/enolase 2 (Example 18); assay type: cell-based; details: FIG. 57

Megasphaera massiliensis MRx0029
expression of DRD2 [1]: significantly decreased the expression of DRD2 | reduction of cell viability [2]: approximately 70% | cell viability ([2]; undifferentiated neuroblastoma cells, MRx0029 at 5% or 10%): significant, dose-dependent decrease in cell viability | expression of CD11b in the amygdala [3]: increased expression of CD11b | expression of TLR-4 in the amygdala [3]: significantly increased the expression of TLR-4 | ERK signalling [4]: reduced ERK signalling | neuron specific enolase (NSE)/enolase 2 [5]: statistically-significant effect suppressing
